By IC50 is commonly meant the concentration needed to halve the response being measured.

In US20230357179A1, “RAF KINASE INHIBITORS AND METHODS OF USE THEREOF” (Deciphera Pharmaceuticals, LLC, priority 2021, published 2023) one finds IC50 data, which are given here for 18 molecules.

For the first assay, the target named is T1, A-Raf kinase (Homo sapiens, UniProt P10398, Y301D/Y302D).
T1 construct: purchased Sigma
T1 sequence (P10398 with tags, fused parts or gaps Y301D/Y302D): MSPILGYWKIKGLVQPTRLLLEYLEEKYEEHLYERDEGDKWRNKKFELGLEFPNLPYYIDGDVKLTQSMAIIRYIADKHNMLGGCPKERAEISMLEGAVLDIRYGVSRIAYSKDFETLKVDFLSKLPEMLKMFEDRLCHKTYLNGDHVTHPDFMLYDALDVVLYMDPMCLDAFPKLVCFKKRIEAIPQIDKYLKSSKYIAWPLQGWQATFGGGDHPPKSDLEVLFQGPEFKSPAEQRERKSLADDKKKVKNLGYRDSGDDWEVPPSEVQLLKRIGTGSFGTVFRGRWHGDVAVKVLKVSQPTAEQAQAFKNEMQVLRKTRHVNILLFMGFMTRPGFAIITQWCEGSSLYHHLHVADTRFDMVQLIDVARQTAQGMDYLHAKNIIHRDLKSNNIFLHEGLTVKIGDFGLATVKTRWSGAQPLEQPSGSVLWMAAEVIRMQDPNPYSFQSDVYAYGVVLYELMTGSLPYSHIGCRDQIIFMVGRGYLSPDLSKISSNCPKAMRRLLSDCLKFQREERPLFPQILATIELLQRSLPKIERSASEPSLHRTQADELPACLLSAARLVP
Nature of the assay: Biochemical assay for A-Raf.1 (coupled pyruvate kinase/lactate dehydrogenase). As to conditions: read-out: ARAF.1 IC50. A digest of the protocol: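 IC50 values came from four-parameter sigmoidal fits of percent inhibition, using rates over the 4 to 5 h window of continuous A340 readings (6 h, 30° C). The coupled PK/LDH system tracked NADH oxidation during 5.55 nM A-Raf activity on 30.1 nM MEK at 1 mM ATP, buffer pH 7.5.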
`Cc1ccc(NC(=O)NCCC(C)(C)C)cc1-c1ccnc(N2CCOCC2)c1` [Example 18]: the 50% inhibitory concentration (IC50) was above 1000 nM.
Same read-out and setting: next, `Cc1cc(F)c(NC(=O)NCCC(C)(C)C#N)cc1-c1cc(N2CCOCC2)nc(N2CCOCC2)c1` [Example 22]: above 1000 nM; `Cc1cc(F)c(NC(=O)NCCC2(C(F)(F)F)CC2)cc1-c1cc(N2CCOCC2)nc(N2CCOCC2)c1` [Example 23]: above 1000 nM.
With `Cc1cc(F)c(NC(=O)NCCC2(C(F)(F)F)CC2)cc1-c1cc(OCCO)nc(C2CCOCC2)c1` [Example 24], the IC50 was above 1000 nM.
Consider `CC(=O)Nc1cc(-c2cc(-c3cc(NC(=O)NCCC4(C)CC4)c(F)cc3C)cc(OCCO)n2)ccn1` [Example 33], for which the IC50 lay within 100 to 500 nM.
For `Cc1cc(F)c(NC(=O)NCCC2(C)CC2)cc1-c1cc(OCC(C)(C)O)nc(-c2ccncc2)c1` [Example 34], the IC50 was above 1000 nM.
As to `COC(C)(C)CCNC(=O)Nc1cc(-c2cnnc(-c3ccnc(NC(=O)C4CC4)c3)c2)c(C)cc1F` [Example 173], the IC50 was above 1000 nM.
For `COC(=O)Nc1cc(-c2nc(OCCO)cc(-c3cc(NC(=O)NC4CC(C)(C)C4)cnc3C)n2)ccn1` [Example 174], the IC50 was above 1000 nM.
As to `CC(=O)Nc1cc(-c2cc(-c3cc(NC(=O)NCCC4(C)CC4)c(F)cc3C)cc(NCCO)n2)ccn1` [Example 175], the IC50 fell in the range of 100 to 500 nM.
As for `COC[C@H]1CCN(C(=O)Nc2cnc(C)c(-c3ccnc(-c4ccnc(NC(=O)OC)c4)c3)c2)C1` [Example 176], the IC50 is above 1000 nM.
Consider `CNC(=O)c1cc(-c2cnnc(-c3cc(NC(=O)N4CC[C@H](OC)C4)ccc3C)c2)ccn1` [Example 177], for which the IC50 was above 1000 nM.
Regarding `CNC(=O)c1cc(-c2cnnc(-c3cc(NC(=O)N4CCC5(CC5)C4)ccc3C)c2)ccn1` [Example 178], the IC50 is above 1000 nM.
Turning to `COC[C@@H]1CCN(C(=O)Nc2cnc(C)c(-c3ccnc(-c4ccnc(NC(=O)OC)c4)c3)c2)C1` [Example 179], the IC50 was above 1000 nM.
For the molecule `CNC(=O)c1cc(-c2cnnc(-c3cc(NC(=O)N4CCC(C(C)(C)C)C4)ccc3C)c2)ccn1` (stereo not drawn) [Example 180], the IC50 was above 1000 nM.
In the case of `CNC(=O)c1cc(-c2cnnc(-c3cc(NC(=O)N4CC[C@@H](OC)C4)ccc3C)c2)ccn1` [Example 181], the IC50 was above 1000 nM.
In the case of `CNC(=O)c1cc(-c2cnnc(-c3cc(NC(=O)N4CC[C@@H](OC(F)(F)F)C4)ccc3C)c2)ccn1` [Example 182], the IC50 was above 1000 nM.
`CNC(=O)c1cc(-c2cnnc(-c3cc(NC(=O)N4CCC(C(C)(C)C)C4)cnc3C)c2)ccn1` (stereo not drawn) [Example 184]: the IC50 was above 1000 nM.
Turning to `COC(=O)Nc1cc(-c2cnnc(-c3cc(NC(=O)N4CCC(C(C)(C)C)C4)ccc3C)c2)ccn1` (stereo not drawn) [Example 185], the IC50 was above 1000 nM.

For the next assay, the target named is T2, C-Raf kinase (Homo sapiens, UniProt P04049, Y340D/Y341D).
T2 construct: Y340D,; GST (N); purchased Sigma
T2 sequence (P04049 307-648 Y340D/Y341D): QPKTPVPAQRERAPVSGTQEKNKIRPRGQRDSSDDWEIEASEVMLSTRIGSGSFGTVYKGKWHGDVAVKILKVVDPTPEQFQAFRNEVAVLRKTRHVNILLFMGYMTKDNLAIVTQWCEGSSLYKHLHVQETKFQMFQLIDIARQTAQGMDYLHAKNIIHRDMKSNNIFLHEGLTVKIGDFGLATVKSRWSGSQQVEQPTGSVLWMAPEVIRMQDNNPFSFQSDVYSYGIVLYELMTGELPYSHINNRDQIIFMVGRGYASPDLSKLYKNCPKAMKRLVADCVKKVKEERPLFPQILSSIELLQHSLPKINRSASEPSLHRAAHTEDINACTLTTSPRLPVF
Nature of the assay: Biochemical assay for C-Raf.1 (coupled pyruvate kinase/lactate dehydrogenase). Conditions: read-out: CRAF.1 IC50. A digest of the protocol: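 NADH depletion at 340 nm monitored continuously for 6 h at 30° C, with rates taken over 4–5 h. The coupled pyruvate kinase/lactate dehydrogenase reaction used 1 mM ATP, 30.1 nM MEK substrate and 0.43 nM kinase at pH 7.5. IC50 was fitted sigmoidally from percent inhibition of serially diluted compound.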
With `Cc1ccc(NC(=O)NCCC(C)(C)C)cc1-c1ccnc(N2CCOCC2)c1` [Example 18], the IC50 is at most 100 nM.
For the molecule `Cc1cc(F)c(NC(=O)NCCC(C)(C)C#N)cc1-c1cc(N2CCOCC2)nc(N2CCOCC2)c1` [Example 22], the IC50 was at most 100 nM.
In the case of `Cc1cc(F)c(NC(=O)NCCC2(C(F)(F)F)CC2)cc1-c1cc(N2CCOCC2)nc(N2CCOCC2)c1` [Example 23], the IC50 was at most 100 nM.
As to `Cc1cc(F)c(NC(=O)NCCC2(C(F)(F)F)CC2)cc1-c1cc(OCCO)nc(C2CCOCC2)c1` [Example 24], the IC50 was at most 100 nM.
`CC(=O)Nc1cc(-c2cc(-c3cc(NC(=O)NCCC4(C)CC4)c(F)cc3C)cc(OCCO)n2)ccn1` [Example 33]: the IC50 is at most 100 nM.
The same measure, in the same setting: next, `Cc1cc(F)c(NC(=O)NCCC2(C)CC2)cc1-c1cc(OCC(C)(C)O)nc(-c2ccncc2)c1` [Example 34]: at most 100 nM; `COC(C)(C)CCNC(=O)Nc1cc(-c2cnnc(-c3ccnc(NC(=O)C4CC4)c3)c2)c(C)cc1F` [Example 173]: at most 100 nM; `COC(=O)Nc1cc(-c2nc(OCCO)cc(-c3cc(NC(=O)NC4CC(C)(C)C4)cnc3C)n2)ccn1` [Example 174]: at most 100 nM.
Take `CC(=O)Nc1cc(-c2cc(-c3cc(NC(=O)NCCC4(C)CC4)c(F)cc3C)cc(NCCO)n2)ccn1` [Example 175]: the IC50 is at most 100 nM.
As to `COC[C@H]1CCN(C(=O)Nc2cnc(C)c(-c3ccnc(-c4ccnc(NC(=O)OC)c4)c3)c2)C1` [Example 176], the IC50 lay in the range of 100 to 500 nM.
Turning to `CNC(=O)c1cc(-c2cnnc(-c3cc(NC(=O)N4CC[C@H](OC)C4)ccc3C)c2)ccn1` [Example 177], the IC50 is above 1000 nM.
The same measure, in the same setting: to `CNC(=O)c1cc(-c2cnnc(-c3cc(NC(=O)N4CCC5(CC5)C4)ccc3C)c2)ccn1` [Example 178] belongs 500 to 1000 nM; to `COC[C@@H]1CCN(C(=O)Nc2cnc(C)c(-c3ccnc(-c4ccnc(NC(=O)OC)c4)c3)c2)C1` [Example 179], 100 to 500 nM.
Same read-out and setting: to `CNC(=O)c1cc(-c2cnnc(-c3cc(NC(=O)N4CCC(C(C)(C)C)C4)ccc3C)c2)ccn1` (stereo not drawn) [Example 180] belongs 100 to 500 nM.
`CNC(=O)c1cc(-c2cnnc(-c3cc(NC(=O)N4CC[C@@H](OC)C4)ccc3C)c2)ccn1` [Example 181]: the IC50 is above 1000 nM.
For `CNC(=O)c1cc(-c2cnnc(-c3cc(NC(=O)N4CC[C@@H](OC(F)(F)F)C4)ccc3C)c2)ccn1` [Example 182], the IC50 is 100 to 500 nM.
Consider `CNC(=O)c1cc(-c2cnnc(-c3cc(NC(=O)N4CCC(C(C)(C)C)C4)cnc3C)c2)ccn1` (stereo not drawn) [Example 184], for which the IC50 is 500 to 1000 nM.
As to `COC(=O)Nc1cc(-c2cnnc(-c3cc(NC(=O)N4CCC(C(C)(C)C)C4)ccc3C)c2)ccn1` (stereo not drawn) [Example 185], the IC50 was at most 100 nM.

For another assay, the target named is T3, B-Raf (V600E) kinase (Homo sapiens, UniProt P15056, V600E).
T3 construct: B-Raf (V600E) residues 416-766 with a; GST (N); purchased SignalChem
T3 sequence (P15056 416-766 V600E): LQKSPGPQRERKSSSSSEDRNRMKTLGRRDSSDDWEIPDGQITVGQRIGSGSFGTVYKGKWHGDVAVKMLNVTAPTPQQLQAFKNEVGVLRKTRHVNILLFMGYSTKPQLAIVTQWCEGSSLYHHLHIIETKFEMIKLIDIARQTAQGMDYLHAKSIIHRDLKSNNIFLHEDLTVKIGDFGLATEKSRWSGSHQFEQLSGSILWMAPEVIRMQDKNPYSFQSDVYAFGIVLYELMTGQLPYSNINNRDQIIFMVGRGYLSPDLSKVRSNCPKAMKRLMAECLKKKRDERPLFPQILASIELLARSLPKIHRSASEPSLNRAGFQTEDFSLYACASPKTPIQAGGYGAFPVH
Nature of the assay: Biochemical assay for B-Raf (V600E).1 (coupled pyruvate kinase/lactate dehydrogenase). As to conditions: read-out: BRAF V600E.1 IC50. A digest of the protocol:
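IC50 came from four-parameter sigmoidal fits of percent inhibition, using reaction rates over 3-4 h. Continuous A340 reading (6 h, 30 °C) of a pyruvate kinase/lactate dehydrogenase-coupled reaction: B-Raf V600E 0.03 nM, MEK 30.1 nM, ATP 1 mM, Tris pH 7.5, 1% DMSO.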
In the case of `Cc1ccc(NC(=O)NCCC(C)(C)C)cc1-c1ccnc(N2CCOCC2)c1` [Example 18], the IC50 was at most 100 nM.
On the same count and under the same terms, to `Cc1cc(F)c(NC(=O)NCCC(C)(C)C#N)cc1-c1cc(N2CCOCC2)nc(N2CCOCC2)c1` [Example 22] belongs at most 100 nM.
`Cc1cc(F)c(NC(=O)NCCC2(C(F)(F)F)CC2)cc1-c1cc(N2CCOCC2)nc(N2CCOCC2)c1` [Example 23]: the IC50 was at most 100 nM.
Still for that read-out and setting: next, `Cc1cc(F)c(NC(=O)NCCC2(C(F)(F)F)CC2)cc1-c1cc(OCCO)nc(C2CCOCC2)c1` [Example 24]: at most 100 nM; `CC(=O)Nc1cc(-c2cc(-c3cc(NC(=O)NCCC4(C)CC4)c(F)cc3C)cc(OCCO)n2)ccn1` [Example 33]: at most 100 nM; `Cc1cc(F)c(NC(=O)NCCC2(C)CC2)cc1-c1cc(OCC(C)(C)O)nc(-c2ccncc2)c1` [Example 34]: at most 100 nM.
In the case of `COC(C)(C)CCNC(=O)Nc1cc(-c2cnnc(-c3ccnc(NC(=O)C4CC4)c3)c2)c(C)cc1F` [Example 173], the IC50 is at most 100 nM.
`COC(=O)Nc1cc(-c2nc(OCCO)cc(-c3cc(NC(=O)NC4CC(C)(C)C4)cnc3C)n2)ccn1` [Example 174]: the IC50 is at most 100 nM.
Consider `CC(=O)Nc1cc(-c2cc(-c3cc(NC(=O)NCCC4(C)CC4)c(F)cc3C)cc(NCCO)n2)ccn1` [Example 175], for which the IC50 is at most 100 nM.
The same measure, in the same setting: next, `COC[C@H]1CCN(C(=O)Nc2cnc(C)c(-c3ccnc(-c4ccnc(NC(=O)OC)c4)c3)c2)C1` [Example 176]: at most 100 nM; `CNC(=O)c1cc(-c2cnnc(-c3cc(NC(=O)N4CC[C@H](OC)C4)ccc3C)c2)ccn1` [Example 177]: 100 to 500 nM.
On to `CNC(=O)c1cc(-c2cnnc(-c3cc(NC(=O)N4CCC5(CC5)C4)ccc3C)c2)ccn1` [Example 178], for which the IC50 is at most 100 nM.
Regarding `COC[C@@H]1CCN(C(=O)Nc2cnc(C)c(-c3ccnc(-c4ccnc(NC(=O)OC)c4)c3)c2)C1` [Example 179], the IC50 is at most 100 nM.
In the case of `CNC(=O)c1cc(-c2cnnc(-c3cc(NC(=O)N4CCC(C(C)(C)C)C4)ccc3C)c2)ccn1` (stereo not drawn) [Example 180], the IC50 was at most 100 nM.
For the molecule `CNC(=O)c1cc(-c2cnnc(-c3cc(NC(=O)N4CC[C@@H](OC)C4)ccc3C)c2)ccn1` [Example 181], the IC50 was in the range of 100 to 500 nM.
As for `CNC(=O)c1cc(-c2cnnc(-c3cc(NC(=O)N4CC[C@@H](OC(F)(F)F)C4)ccc3C)c2)ccn1` [Example 182], the IC50 is at most 100 nM.
In the case of `CNC(=O)c1cc(-c2cnnc(-c3cc(NC(=O)N4CCC(C(C)(C)C)C4)cnc3C)c2)ccn1` (stereo not drawn) [Example 184], the IC50 was at most 100 nM.
Turning to `COC(=O)Nc1cc(-c2cnnc(-c3cc(NC(=O)N4CCC(C(C)(C)C)C4)ccc3C)c2)ccn1` (stereo not drawn) [Example 185], the IC50 is at most 100 nM.

Another assay deals with Miapaca-2 cells. Nature of the assay: MiaPaca-2 cell proliferation assay (1), resazurin, 96-well. The format is cell-based. As to conditions: Homo sapiens, MIA PaCa-2, inhibition of cell proliferation. The method in brief: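 Three thousand cells per well in DMEM with 10% FBS and 2.5% horse serum exposed to serially diluted compound in triplicate for 67-72 h at 37 °C, 5% CO2. Viability by resazurin (additional 5-6 h), fluorescence ex 540/em 600 nm; IC50 calculated.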
(In general: Alamar Blue is a resazurin reagent that responds to reducing activity.)
In the case of `Cc1ccc(NC(=O)NCCC(C)(C)C)cc1-c1ccnc(N2CCOCC2)c1` [Example 18], the IC50 lay within 1000 to 10000 nM.
As to `Cc1cc(F)c(NC(=O)NCCC(C)(C)C#N)cc1-c1cc(N2CCOCC2)nc(N2CCOCC2)c1` [Example 22], the IC50 lay within 1000 to 10000 nM.
As to `Cc1cc(F)c(NC(=O)NCCC2(C(F)(F)F)CC2)cc1-c1cc(N2CCOCC2)nc(N2CCOCC2)c1` [Example 23], the IC50 was in the range of 1000 to 10000 nM.
Take `Cc1cc(F)c(NC(=O)NCCC2(C(F)(F)F)CC2)cc1-c1cc(OCCO)nc(C2CCOCC2)c1` [Example 24]: the IC50 was 1000 to 10000 nM.
With `CC(=O)Nc1cc(-c2cc(-c3cc(NC(=O)NCCC4(C)CC4)c(F)cc3C)cc(OCCO)n2)ccn1` [Example 33], the IC50 lay within 100 to 500 nM.
For `Cc1cc(F)c(NC(=O)NCCC2(C)CC2)cc1-c1cc(OCC(C)(C)O)nc(-c2ccncc2)c1` [Example 34], the IC50 lay in the range of 1000 to 10000 nM.
